The record followed here is article PMC3525792 (Bioorganic & medicinal chemistry letters, 2012).

The assay deals with EGFP-hSERT (UniProt P31645+P42212, F64L/H231L/S65T). The format is cell-based, human.

For `CCN(CC)c1ccc2c(-c3ccc(S(=O)(=O)NCCCCCC(=O)NCCC(=O)Nc4cccc(-c5ccc6c(c5)COC6(CCCN(C)C)c5ccc(F)cc5)c4)cc3S(=O)(=O)[O-])c3ccc(=[N+](CC)CC)cc-3oc2c1` (centres unmarked) [compound 8], the “labeling of EGFP-SERT in live cells in the presence of paroxetine” value (20 nM 8, 37°C, preincubation with 1 μM paroxetine 30 min) was “no fluorescence was observed at the cell surface in the red channel”. Moreover, for the setting “20 nM 8, 60 min at 37°C, HEK293 EGFP-hSERT, without paroxetine”, the “labeling of EGFP-SERT in live cells” value was “labels SERT with high specificity”.
